{"source": "patent US5919464A", "about": "“Treatment of aberrant cellular states with biomodulators” (University of New Mexico, priority 1993, dated 1999)", "test_system": "splenocytes", "assay": "effect of swainsonine on humoral immunity (PFC assay)", "assay_type": "in vivo, mouse", "description": "The plaque forming cell (PFC) assay was done according to the method developed by Jerne and Nordin (1963). The splenocytes were washed in serum-free RPMI-1640 and brought to a final concentration of 1×10^6 cell/100 μl. Sheep red blood cells (sRBC), from The Colorado Serum Company, were labelled with protein A from Staphylococcus aureus (Sigma). The sRBC's were washed 3 times with saline (0.85% NaCl), the packed cells were then incubated with 1 ml of protein A (0.5 mg/ml saline) and 10 ml of saline containing 0.1 μl of CrCl3 (35% solution) (Aldrich), for 20 minutes. The sRBC's were then washed 3 times with PBS and suspended in PBS to make a 30% solution. The sRBC's (50 μl) and splenocytes (100μl) were combined with SeaPlaque agarose (FMC Corporation) and smeared on a 75 mm×50 mm microscope slide to form a lawn of target red blood cells with uniformly dispersed effector cells. Each sample was done in triplicate. The agarose was allowed to harden and the slides were placed in trays containing serum-free RPMI-1640. The trays were incubated at 37° C. in a CO2 incubator for 90 min. After incubation the slides were placed in slide holders containing normal saline for a wash step. The rabbit/anti-mouse antibody (DAKO Corporation) was diluted 1:400 with serum free RPMI-1640 and added to the slide trays. Following another 90 min. incubation at 37° C. in a CO2 incubator, the slides were again washed. Fresh frozen guinea pig complement (GIBCO) (2%) in serum-free RPMI-1640 was added to the slide trays and incubated for another 60 to 90 min. depending on the time necessary for plaque formation. The number of plaques were counted and the results reported as number of plaque forming cells per 1×10^6 splenocytes.\nMice were pretreated for 3 weeks with Sw (0.1 μg and 0.01 μg), and then received B16 cells. At 3 time points post tumor cell injection (day 0, 7 and 14), the mice were sacrificed and the spleens were removed. The cells were then used to determine the effect of Sw on humoral immunity. […] The presence of a day 7 tumor caused a return to baseline for all the groups. […]", "data": [{"smiles": "O[C@H]1[C@H]2[C@H](O)CCCN2C[C@H]1O", "note": "[Swainsonine, swainsonine]", "values": [{"measurement": "increase in plaque forming cells (PFC)", "setting": "0.01 μg Sw 3 weeks over mice not receiving Sw, p=0.001", "value": 89, "unit": "%"}, {"measurement": "PFC versus control group", "setting": "0.1 μg Sw without tumor, in words", "value": "not as significantly different from the control group (p=0.04)"}, {"measurement": "PFC versus controls", "setting": "0.1 μg Sw, day 14, in words", "value": "not a significant difference between the controls and these treated mice (p=0.13)"}]}]}
